One test deals with T1, human ENPP1 (Homo sapiens, UniProt P22413).
T1 construct: made in house
T1 sequence (P22413 1-925): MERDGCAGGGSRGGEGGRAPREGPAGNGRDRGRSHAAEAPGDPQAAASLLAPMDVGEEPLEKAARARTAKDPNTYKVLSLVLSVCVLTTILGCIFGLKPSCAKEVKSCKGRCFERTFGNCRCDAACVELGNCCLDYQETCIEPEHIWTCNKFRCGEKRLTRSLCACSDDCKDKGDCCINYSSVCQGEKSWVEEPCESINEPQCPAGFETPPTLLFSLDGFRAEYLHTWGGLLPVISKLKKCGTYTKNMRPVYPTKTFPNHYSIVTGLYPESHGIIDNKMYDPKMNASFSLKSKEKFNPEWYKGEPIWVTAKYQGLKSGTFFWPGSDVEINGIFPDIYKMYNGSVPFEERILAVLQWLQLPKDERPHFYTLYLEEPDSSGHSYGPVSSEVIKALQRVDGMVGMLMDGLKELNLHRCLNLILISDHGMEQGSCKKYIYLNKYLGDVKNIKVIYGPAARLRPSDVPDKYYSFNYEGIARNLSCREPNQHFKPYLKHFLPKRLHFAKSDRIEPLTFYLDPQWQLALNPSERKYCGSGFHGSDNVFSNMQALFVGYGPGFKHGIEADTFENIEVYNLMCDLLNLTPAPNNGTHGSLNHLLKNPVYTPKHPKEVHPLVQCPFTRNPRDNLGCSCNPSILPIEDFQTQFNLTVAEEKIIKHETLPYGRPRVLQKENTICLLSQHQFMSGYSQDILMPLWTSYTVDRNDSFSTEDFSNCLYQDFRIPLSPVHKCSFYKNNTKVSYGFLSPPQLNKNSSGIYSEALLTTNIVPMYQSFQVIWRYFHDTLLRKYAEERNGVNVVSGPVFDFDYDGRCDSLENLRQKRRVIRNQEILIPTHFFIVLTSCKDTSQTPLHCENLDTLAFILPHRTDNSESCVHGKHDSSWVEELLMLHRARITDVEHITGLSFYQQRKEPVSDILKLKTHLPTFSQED
Briefly: ENPP1 assay with ATP substrate (Transcreener AMP2/GMP2 TR-FRET). Type of test: biochemical. The note with it: 1 hour at room temperature. From the text:
Example B1: ENPP1 Assay with ATP Substrate
Ectonucleotide pyrophosphatase/phosphodiesterase 1 (ENPP1) hydrolyzes ATP, breaking it down into 5′-AMP and pyrophosphate. The 5′-AMP formed from the reaction is detected by Transcreener® AMP2/GMP2 TR-FRET Assay (Bellbrook), containing AMP-tracer (HiLyte 647) and anti-AMP Terbium (Tb) donor. 5′-AMP generated in the reaction competes with AMP-tracer for binding with Anti-AMP Tb donor, and decreases TR-FRET signal.
Different concentrations of ENPP1 inhibitors are added to dry assay plate, followed by 2 μl 300 nM ATP. The reaction is initiated with the addition of 2 μl 8.5 μM human ENPP1 (generated by SBP Protein group). The assay reaction mixture contains a buffer of 50 mM Tris, pH 7.5, 1 mM TCEP, 2 mM MgCl2, 0.005% Tween 20, and 1% DMSO. The reaction is stopped after 1 hour at room temperature by adding 2 μL of 2 nM AMP-tracer and 2 μl of 2 nM Anti-AMP Tb donor in the 50 mM Tris, pH 7.5, buffer containing 20 mM EDTA and 0.1% Prionex. After 2 hour additional incubation at room temperature, the generated signal is measured using BMG Lab PHERASTAR instrument. 100% activity control samples (containing enzyme, substrate, buffer: MAX) and no enzyme control samples (containing substrate and buffer: MIN) are utilized to calculate percent inhibition (%) for each compound concentration well (COMPOUND) as follows.
The IC50 values are determined by fitting the inhibition curves with 2-parameter variable slope model in Graphpad Prism software using percent inhibition vs compound concentration data: […]
On the technique in general: Time-resolved FRET reads energy transfer from a long-lived donor to a nearby acceptor.

Another test has as its target T2, ENPP3 (Homo sapiens, UniProt O14638).
T2 sequence (O14638 1-875): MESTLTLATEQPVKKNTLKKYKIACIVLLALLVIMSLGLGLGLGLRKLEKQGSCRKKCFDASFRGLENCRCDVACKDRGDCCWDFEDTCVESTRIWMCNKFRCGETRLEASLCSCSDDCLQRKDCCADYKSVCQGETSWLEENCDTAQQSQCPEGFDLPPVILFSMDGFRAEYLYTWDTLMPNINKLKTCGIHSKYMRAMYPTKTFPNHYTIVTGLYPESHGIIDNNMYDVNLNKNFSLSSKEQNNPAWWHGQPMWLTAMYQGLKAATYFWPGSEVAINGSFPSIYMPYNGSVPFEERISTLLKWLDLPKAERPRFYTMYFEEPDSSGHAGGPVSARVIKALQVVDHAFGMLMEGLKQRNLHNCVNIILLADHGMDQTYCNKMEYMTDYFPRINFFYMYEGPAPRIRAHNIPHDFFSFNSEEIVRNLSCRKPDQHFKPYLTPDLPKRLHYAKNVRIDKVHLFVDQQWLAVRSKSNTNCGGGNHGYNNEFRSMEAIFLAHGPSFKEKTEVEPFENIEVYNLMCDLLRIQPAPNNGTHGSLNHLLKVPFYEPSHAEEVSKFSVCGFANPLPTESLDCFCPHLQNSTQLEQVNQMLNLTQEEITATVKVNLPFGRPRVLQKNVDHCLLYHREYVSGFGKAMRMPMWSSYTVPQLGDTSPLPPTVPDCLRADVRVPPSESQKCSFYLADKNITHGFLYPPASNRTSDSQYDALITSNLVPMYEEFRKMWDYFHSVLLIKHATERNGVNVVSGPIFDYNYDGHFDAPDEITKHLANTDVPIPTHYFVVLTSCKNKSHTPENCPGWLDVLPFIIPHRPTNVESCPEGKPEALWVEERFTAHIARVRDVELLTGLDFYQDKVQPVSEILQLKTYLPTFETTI
As to the kind of experiment: ENPP3 Km ATP assay. The class given is biochemical. The note with it: ATP at Km.

Bounds are passed on as bounds.

Take `Cc1noc2ncnc(N3CCC(NCCCc4ccc(F)cc4)CC3)c12` [Example 2.57, N-(3-(4-Fluorophenyl)propyl)-1-(3-methylisoxazolo[5,4-d]pyrimidin-4-yl)piperidin-4-amine]: the IC50 on human ENPP1 and against ENPP3 was over 20 µM each time.
Consider `Cn1ncc2c(NCc3ccc(S(N)(=O)=O)cc3)nc(NC3CC3)nc21` [Example 2.35, 4-(((6-(Cyclopropylamino)-1-methyl-1H-pyrazolo[3,4-d]pyrimidin-4-yl)amino)methyl)-benzenesulfonamide], for which the IC50 against human ENPP1 and against ENPP3 was 0.1 to 1 µM throughout.
Consider `CCn1ncc2c(NCc3ccc(S(N)(=O)=O)cc3)nc(OCCC(C)(C)OC)nc21` [Example 2.98, 4-((1-Ethyl-6-(3-methoxy-3-methylbutoxy)-1H-pyrazolo[3,4-d]pyrimidin-4-yl)aminomethyl)-benzenesulfonamide], for which the results for the IC50 at human ENPP1 and against ENPP3 were under 0.1 µM and 1 to 20 µM, respectively.
In the same order, the values of `Cc1csc2c(N3CCC(Nc4ccncc4)CC3)ncnc12` [Example 3.24, N-(1-(7-Methylthieno[3,2-d]pyrimidin-4-yl)piperidin-4-yl)pyridin-4-amine] are 1 to 20 µM and over 20 µM.
As to `Cc1csc2c(N3CCC(NCCCc4ccncc4F)CC3)ncnc12` [Example 3.40, N-(3-(3-Fluoropyridin-4-yl)propyl)-1-(7-methylthieno[3,2-d]pyrimidin-4-yl)piperidin-4-amine], the half-maximal inhibitory concentration (IC50) (in general, the midpoint of a concentration-inhibition curve) is 0.1 to 1 µM on human ENPP1 and over 20 µM at ENPP3.
In the same order, the values of `NS(=O)(=O)c1ccc(CNc2nc(NCCO)nc3scc(-c4ccccc4)c23)cc1` [Example 1.50, 4-((2-(2-Hydroxyethylamino)-5-phenylthieno[2,3-d]pyrimidin-4-yl)aminomethyl)-benzenesulfonamide] are under 0.1 µM and under 0.1 µM.
In the case of `Cn1ncc2c(NCc3ccc(S(N)(=O)=O)cc3)cc(C3CC3)nc21` [Example 2.134, 4-((6-Cyclopropyl-1-methyl-1H-pyrazolo[3,4-b]pyridin-4-yl)aminomethyl)-benzenesulfonamide], the concentration for half-maximal inhibition (IC50) on human ENPP1 and at ENPP3 was 1 to 20 µM in each case.
`Cc1nc(NCc2ccc(S(N)(=O)=O)cc2)c2c3c(sc2n1)CCCC3` [Example 1.64, 4-((2-Methyl-5,6,7,8-tetrahydro[1]benzothieno[2,3-d]pyrimidin-4-yl)aminomethyl)-benzenesulfonamide]: the IC50 at human ENPP1 was over 20 µM; against ENPP3, 1 to 20 µM.
The corresponding values for `NS(=O)(=O)c1ccc(CNc2nc(-c3ccccc3)nc3scc(-c4ccccc4)c23)cc1` [Example 1.24, 4-(((2,5-Diphenylthieno[2,3-d]pyrimidin-4-yl)amino)methyl)benzenesulfonamide] are over 20 µM and over 20 µM.
Turning to `Cn1ncc2c(NCc3ccc(S(N)(=O)=O)cc3F)cc(Cl)nc21` [Example 2.143, 4-(((6-Chloro-1-methyl-1H-pyrazolo[3,4-b]pyridin-4-yl)amino)methyl)-3-fluorobenzenesulfonamide], the IC50 on human ENPP1 and at ENPP3 was under 0.1 µM each time.
With `CSc1nc(NCc2ccc(S(N)(=O)=O)cc2)c2cnn(C)c2n1` [Example 2.107, 4-((1-Methyl-6-(methylsulfanyl)-1H-pyrazolo[3,4-d]pyrimidin-4-yl)aminomethyl)-benzenesulfonamide], the IC50 against human ENPP1 and against ENPP3 was under 0.1 µM each time.
On to `Cn1ncc2c(NCc3ccc(S(N)(=O)=O)c(Cl)c3)ccnc21` [Example 2.68, 2-Chloro-4-(((1-methyl-1H-pyrazolo[3,4-b]pyridin-4-yl)amino)methyl)-benzenesulfonamide], for which the IC50 against human ENPP1 was 0.1 to 1 µM; against ENPP3, 1 to 20 µM.
In the case of `CCSc1nc(NCc2ccc(S(N)(=O)=O)cc2)c2cnn(CC)c2n1` [Example 2.109, 4-((1-Ethyl-6-(ethylsulfanyl)-1H-pyrazolo[3,4-d]pyrimidin-4-yl)aminomethyl)-benzenesulfonamide], the IC50 against human ENPP1 is under 0.1 µM; against ENPP3 it was 0.1 to 1 µM.
For the compound `COc1cc(S(N)(=O)=O)ccc1CNc1nc(-c2ccccn2)nc2scc(-c3ccccc3)c12` [Example 1.17, 3-Methoxy-4-(((5-phenyl-2-(pyridin-2-yl)thieno[2,3-d]pyrimidin-4-yl)amino)methyl)-benzenesulfonamide], the IC50 was under 0.1 µM at human ENPP1 and 1 to 20 µM at ENPP3.
On to `c1ccc(-c2csc3nc(-c4ccccn4)nc(NCc4ccncc4)c23)cc1` [Example 1, 5-Phenyl-2-(pyridin-2-yl)-N-(pyridin-4-ylmethyl)thieno[2,3-d]pyrimidin-4-amine], for which the figures for the half-inhibitory concentration (IC50) on human ENPP1 and against ENPP3 were 0.1 to 1 µM and over 20 µM, respectively.
The corresponding values for `Cc1nc(N2CCC(NCCCc3ccncc3)CC2)c2scc(C)c2n1` [Example 3.52, 1-(2,7-Dimethylthieno[3,2-d]pyrimidin-4-yl)-N-(3-(pyridin-4-yl)propyl)piperidin-4-amine] are over 20 µM and over 20 µM.
With `CCSc1nc(NCc2ccc(S(N)(=O)=O)cc2)c2c(Br)nn(C)c2n1` [Example 2.110, 4-((3-Bromo-6-(ethylsulfanyl)-1-methyl-1H-pyrazolo[3,4-d]pyrimidin-4-yl)aminomethyl)-benzenesulfonamide], the IC50 at human ENPP1 and against ENPP3 was under 0.1 µM in each case.
In the case of `Cc1csc2c(N3CCC(NC(=O)CCc4ccncc4F)CC3)ncnc12` [Example 3.38, 3-(3-fluoropyridin-4-yl)-N-(1-(7-methylthieno[3,2-d]pyrimidin-4-yl)piperidin-4-yl)propanamide], the IC50 on human ENPP1 and against ENPP3 was over 20 µM in each case.
Take `Cn1ncc2c(NCc3ccc(S(N)(=O)=O)cc3)nc(N)nc21` [Example 2.37, 4-(((6-Amino-1-methyl-1H-pyrazolo[3,4-d]pyrimidin-4-yl)amino)methyl)-benzenesulfonamide]: the IC50 on human ENPP1 and against ENPP3 was 0.1 to 1 µM each time.
`NS(=O)(=O)c1ccc(CNc2nc(-c3ccccn3)nc3scc(-c4ccccc4)c23)cc1` [Example 1.6, 4-(((5-Phenyl-2-(pyridin-2-yl)thieno[2,3-d]pyrimidin-4-yl)amino)methyl)benzenesulfonamide]: the IC50 at human ENPP1 and at ENPP3 was under 0.1 µM each time.
